What follows are compounds tested on HepG2 cells (assay: HepG2 assay: 14C 2-deoxy-D-glucose transport into HepG2 cells). Conditions: Homo sapiens, test compound 100 μM.
Format: cell-based
Procedure: For measurement of ^14C 2-deoxy-D-glucose transport into HepG2 cells, cells were seeded in collagen treated 96-well plates (Cytostar-T Plates Perkin Elmer, 40.000 cells/200 μ/well) in medium complete (MEM W/GLUT-I, EARLES (Gibco #41090) /NEAA/PS/10% FCS) and grown for 48 hours. After starvation for 2 hours with MEM W/GLUT-I, EARLES (Gibco #41090)/NEAA/no serum 100 μl/well and washing twice with 200 μL KRB buffer, cells were stimulated in a dose dependent manner by adding 20 μL of test compound dilution 0-750 μM (7.5 times higher concentration than final) or 20 μL of 188 μM Cytochalasin B solution as negative control, to 80 μL KRB buffer and incubated for 30 minutes. After compound stimulation, the transport of ^14C 2-deoxy-D-glucose was started by adding of 50 μL ^14C 2-deoxy-D-glucose solution (250 μM 2-deoxy-D-glucose cold and 15 μM ^14C 2-deoxy-D-glucose 0.13 μCi/well) for 20 minutes. Transport was stopped by adding 50 μL/well 40 μM Cytochalasin B solution. Plates were measured in a 96-well Wallac Microbeta device. The cpm (counts per minute) values were used to determine the % inhibition values for the test compounds within each experiment, which then are averaged over the number of experiments performed.
For `O=C([C@H]1OC(O)[C@H](O)[C@@H](O)[C@@H]1O)N1CCN(C2CCCCC2)CC1` (stereo partly drawn) [Example 29, (4-Cyclohexylpiperazin-1-yl)-[(2S,3S,4S,5R)-3,4,5,6-tetrahydroxytetrahydropyran-2-yl]methanone], the inhibition at 100 µM was 18.4%. In the case of `O=C([C@H]1OC(O)[C@H](O)[C@@H](O)[C@@H]1O)N1CCN(c2ccc(Cl)cc2)CC1` (stereo partly drawn) [Example 34, [4-(4-Chlorophenyl)piperazin-1-yl]-[(2S,3S,4S,5R)-3,4,5,6-tetrahydroxytetrahydropyran-2-yl]methanone], the inhibition at 100 µM is reported as 20.5%. `O=C([C@H]1OC(O)[C@H](O)[C@@H](O)[C@@H]1O)N1CCN(c2ccc(Br)cc2)CC1` (stereo partly drawn) [Example 36, [4-(4-Bromophenyl)piperazin-1-yl]-[(2S,3S,4S,5R)-3,4,5,6-tetrahydroxytetrahydropyran-2-yl]methanone] gave an inhibition at 100 µM of 20.6%. Work on `COc1ccc(N2CCN(C(=O)[C@H]3OC(O)[C@H](O)[C@@H](O)[C@@H]3O)CC2)cc1` (stereo partly drawn) [Example 37, [4-(4-Methoxyphenyl)piperazin-1-yl]-[(2S,3S,4S,5R)-3,4,5,6-tetrahydroxytetrahydropyran-2-yl]methanone] yielded an inhibition at 100 µM of 6.88%. Work on `COc1cccc(N2CCN(C(=O)[C@H]3OC(O)[C@H](O)[C@@H](O)[C@@H]3O)CC2)c1` (stereo partly drawn) [Example 38, [4-(3-Methoxyphenyl)piperazin-1-yl]-[(2S,3S,4S,5R)-3,4,5,6-tetrahydroxytetrahydropyran-2-yl]methanone] yielded an inhibition at 100 µM of 12.7%. `COc1ccccc1N1CCN(C(=O)[C@H]2OC(O)[C@H](O)[C@@H](O)[C@@H]2O)CC1` (stereo partly drawn) [Example 39, [4-(2-Methoxyphenyl)piperazin-1-yl]-[(2S,3S,4S,5R)-3,4,5,6-tetrahydroxytetrahydropyran-2-yl]methanone] was tested, and the inhibition at 100 µM was 11%. Work on `O=C([C@H]1OC(O)[C@H](O)[C@@H](O)[C@@H]1O)N1CCN(Cc2ccc3c(c2)OCO3)CC1` (stereo partly drawn) [Example 40, [4-(1,3-Benzodioxol-5-ylmethyl)piperazin-1-yl]-[(2S,3S,4S,5R)-3,4,5,6-tetrahydroxytetrahydropyran-2-yl]methanone] yielded an inhibition at 100 µM of 10.1%. For `CC(=O)O[C@@H]1OC(CN2CCN(c3ccccc3)CC2)=C[C@H](OC(C)=O)[C@H]1OC(C)=O` [Example 45, [(2S,3R,4S)-2,3-Diacetoxy-6-[(4-phenylpiperazin-1-yl)methyl]-3,4-dihydro-2H-pyran-4-yl] acetate], the inhibition at 100 µM was 29.3%. `CC(=O)O[C@@H]1OC(CN2CCN(C/C=C/c3ccccc3)CC2)=C[C@H](OC(C)=O)[C@H]1OC(C)=O` [Example 46, [(2S,3R,4S)-2,3-Diacetoxy-6-[[4-[(E)-cinnamyl]piperazin-1-yl]methyl]-3,4-dihydro-2H-pyran-4-yl] acetate] was tested, and the inhibition at 100 µM was 8.76%. `CC(=O)O[C@@H]1OC(CN2CCN(Cc3ccc4c(c3)OCO4)CC2)=C[C@H](OC(C)=O)[C@H]1OC(C)=O` [Example 47, [(2S,3R,4S)-2,3-Diacetoxy-6-[[4-(1,3-benzodioxol-5-ylmethyl)piperazin-1-yl]methyl]-3,4-dihydro-2H-pyran-4-yl] acetate] was tested, and the inhibition at 100 µM was 13.8%. For `CC(=O)O[C@@H]1OC(CN2CCN(c3ccc(Cl)cc3)CC2)=C[C@H](OC(C)=O)[C@H]1OC(C)=O` [Example 48, [(2S,3R,4S)-2,3-Diacetoxy-6-[[4-(4-chlorophenyl)piperazin-1-yl]methyl]-3,4-dihydro-2H-pyran-4-yl] acetate], the inhibition at 100 µM was 28.8%. Work on `CC(=O)O[C@@H]1OC(CN2CCN(c3ccccc3Cl)CC2)=C[C@H](OC(C)=O)[C@H]1OC(C)=O` [Example 49, [(2S,3R,4S)-2,3-Diacetoxy-6-[[4-(2-chlorophenyl)piperazin-1-yl]methyl]-3,4-dihydro-2H-pyran-4-yl] acetate] yielded an inhibition at 100 µM of 19.9%. `COc1ccc(N2CCN(CC3=C[C@H](OC(C)=O)[C@@H](OC(C)=O)[C@H](OC(C)=O)O3)CC2)cc1` [Example 50, [(2S,3R,4S)-2,3-Diacetoxy-6-[[4-(4-methoxyphenyl)piperazin-1-yl]methyl]-3,4-dihydro-2H-pyran-4-yl] acetate] was tested, and the inhibition at 100 µM was 13.8%. For `COc1cccc(N2CCN(CC3=C[C@H](OC(C)=O)[C@@H](OC(C)=O)[C@H](OC(C)=O)O3)CC2)c1` [Example 51, [(2S,3R,4S)-2,3-Diacetoxy-6-[[4-(3-methoxyphenyl)piperazin-1-yl]methyl]-3,4-dihydro-2H-pyran-4-yl] acetate], the inhibition at 100 µM was 17.9%. For `COc1ccccc1N1CCN(CC2=C[C@H](OC(C)=O)[C@@H](OC(C)=O)[C@H](OC(C)=O)O2)CC1` [Example 52, [(2S,3R,4S)-2,3-Diacetoxy-6-[[4-(2-methoxyphenyl)piperazin-1-yl]methyl]-3,4-dihydro-2H-pyran-4-yl] acetate], the inhibition at 100 µM was 14.6%. `CC(=O)O[C@@H]1OC(CN2CCN(c3ccc(Br)cc3)CC2)=C[C@H](OC(C)=O)[C@H]1OC(C)=O` [Example 53, [(2S,3R,4S)-2,3-Diacetoxy-6-[[4-(4-bromophenyl)piperazin-1-yl]methyl]-3,4-dihydro-2H-pyran-4-yl] acetate] showed an inhibition at 100 µM of 23.9%. With `CN(C)c1cccc2c(S(=O)(=O)NCc3cn([C@H]4C(O)O[C@H](CO)[C@@H](O)[C@@H]4O)nn3)cccc12` (stereo partly drawn) [Example 54, 5-(Dimethylamino)-N-[[1-[(3R,4R,5S,6R)-2,4,5-trihydroxy-6-(hydroxymethyl)tetrahydropyran-3-yl]triazol-4-yl]methyl]naphthalene-1-sulfonamide] the inhibition at 100 µM was 10.5%. `OC[C@H]1OC(O)[C@H](n2cc(-c3ccccc3)nn2)[C@@H](O)[C@@H]1O` (stereo partly drawn) [Example 55, (3R,4R,5S,6R)-6-(Hydroxymethyl)-3-(4-phenyltriazol-1-yl)tetrahydropyran-2,4,5-triol] gave an inhibition at 100 µM of 12.4%. With `Cc1ccc(-c2cn([C@H]3C(O)O[C@H](CO)[C@@H](O)[C@@H]3O)nn2)cc1` (stereo partly drawn) [Example 56, (3R,4R,5S,6R)-6-(Hydroxymethyl)-3-[4-(p-tolyl)triazol-1-yl]tetrahydropyran-2,4,5-triol] the inhibition at 100 µM was 21.1%. In the case of `OC[C@H]1OC(O)[C@H](n2cc(CCCc3ccccc3)nn2)[C@@H](O)[C@@H]1O` (stereo partly drawn) [Example 57, (3R,4R,5S,6R)-6-(Hydroxymethyl)-3-[4-(3-phenylpropyl)triazol-1-yl]tetrahydropyran-2,4,5-triol], the inhibition at 100 µM is reported as 24.1%. For `COC(=O)c1ccc(-c2cn([C@H]3C(O)O[C@H](CO)[C@@H](O)[C@@H]3O)nn2)cc1` (stereo partly drawn) [Example 58, Methyl 4-[1-[(3R,4R,5S,6R)-2,4,5-trihydroxy-6-(hydroxymethyl)tetrahydropyran-3-yl]triazol-4-yl]benzoate], the inhibition at 100 µM was 20%. With `CN(Cc1ccccc1)Cc1cn([C@H]2C(O)O[C@H](CO)[C@@H](O)[C@@H]2O)nn1` (stereo partly drawn) [Example 59, (3R,4R,5S,6R)-3-[4-[[Benzyl(methyl)amino]methyl]triazol-1-yl]-6-(hydroxymethyl)tetrahydropyran-2,4,5-triol] the inhibition at 100 µM was 7.56%. With `COc1ccc2cc(-c3cn([C@H]4C(O)O[C@H](CO)[C@@H](O)[C@@H]4O)nn3)ccc2c1` (stereo partly drawn) [Example 60, (3R,4R,5S,6R)-6-(Hydroxymethyl)-3-[4-(6-methoxy-2-naphthyl)triazol-1-yl]tetrahydropyran-2,4,5-triol] the inhibition at 100 µM was 14.8%. For `Cc1ccc(-c2nc(C)c(-c3cn([C@H]4C(O)O[C@H](CO)[C@@H](O)[C@@H]4O)nn3)c(Cl)n2)cc1` (stereo partly drawn) [Example 61, (3R,4R,5S,6R)-3-[4-[4-Chloro-6-methyl-2-(p-tolyl)pyrimidin-5-yl]triazol-1-yl]-6-(hydroxymethyl)tetrahydropyran-2,4,5-triol], the inhibition at 100 µM was 9.42%. Work on `O=[N+]([O-])c1ccc(NCc2cn([C@H]3C(O)O[C@H](CO)[C@@H](O)[C@@H]3O)nn2)c2nonc12` (stereo partly drawn) [Example 63, (3R,4R,5S,6R)-6-(Hydroxymethyl)-3-[4-[[(4-nitro-2,1,3-benzoxadiazol-7-yl)amino]methyl]triazol-1-yl]tetrahydropyran-2,4,5-triol] yielded an inhibition at 100 µM of 37.6%. `OC[C@H]1OC(O)[C@H](n2cc(CC3CCCCC3)nn2)[C@@H](O)[C@@H]1O` (stereo partly drawn) [Example 64, (3R,4R,5S,6R)-3-[4-(Cyclohexylmethyl)triazol-1-yl]-6-(hydroxymethyl)tetrahydropyran-2,4,5-triol] was tested, and the inhibition at 100 µM was 8.86%. Work on `CCCCCc1cn([C@H]2C(O)O[C@H](CO)[C@@H](O)[C@@H]2O)nn1` (stereo partly drawn) [Example 65, (3R,4R,5S,6R)-6-(Hydroxymethyl)-3-(4-pentyltriazol-1-yl)tetrahydropyran-2,4,5-triol] yielded an inhibition at 100 µM of 7.79%. `OC[C@H]1OC(O)[C@H](n2cc(CCCCl)nn2)[C@@H](O)[C@@H]1O` (stereo partly drawn) [Example 66, (3R,4R,5S,6R)-3-[4-(3-Chloropropyl)triazol-1-yl]-6-(hydroxymethyl)tetrahydropyran-2,4,5-triol] showed an inhibition at 100 µM of 5.12%. `O=[N+]([O-])c1ccc(CCCCCCCc2cn([C@H]3C(O)O[C@H](CO)[C@@H](O)[C@@H]3O)nn2)c2nonc12` (stereo partly drawn) [Example 67, (3R,4R,5S,6R)-6-(Hydroxymethyl)-3-[4-[7-(4-nitro-2,1,3-benzoxadiazol-7-yl)heptyl]triazol-1-yl]tetrahydropyran-2,4,5-triol] gave an inhibition at 100 µM of 25.8%. Compound `OC1O[C@H](Cn2cc(-c3ccccc3)nn2)[C@@H](O)[C@H](O)[C@H]1O` (stereo partly drawn) [Example 69, (3R,4S,5S,6R)-6-[(4-Phenyltriazol-1-yl)methyl]tetrahydropyran-2,3,4,5-tetrol] has an inhibition at 100 µM of 6.14%.

From patent publication US11090364B2, “Conjugates of a pharmaceutical agent and a moiety capable of binding to a glucose sensing protein” (SANOFI, priority 2016, dated 2021)
